Measured values: paper PMC3744530, “CTA095, a Novel Etk and Src Dual Inhibitor, Induces Apoptosis in Prostate Cancer Cells and Overcomes Resistance to Src Inhibitors” (PLoS ONE, 2013)

Legend:
[1] = Solubility in water; assay type: physicochemical
[2] = tested on: LNCAP cells; experiment: MTT growth inhibition assay; assay type: cell-based; details: Homo sapiens, 72 h
Description: (§1) Cells were seeded in 96-well plates and cultured overnight, followed by treatment with 0.1% DMSO, as the vehicle control, and CTA095, at the indicated concentrations for 72 h. Growth inhibition was measured using a 3-(4,5-Dimethylthiazol-2-yl)-2,5-diphenyltetrazolium bromide (MTT) assay (Roche Diagnostic, Mannheim, Germany).
(§2) Figure 5 Growth Inhibition of CTA095 to LNCAP, CWR22Rv1, PC3 prostate cancer and normal prostate (RWPE1) cells. Cells were seeded at 5,000 cells/well in 96-well plate overnight and treated with CTA095 at the indicated concentrations. The cell viability was measured using MTT assay after 72 h. dots, mean; bars, standard deviation, n = 3.

[3] = tested on: RWPE1 cells; experiment: MTT growth inhibition assay; assay type: cell-based; details: Homo sapiens, RWPE-1, RWPE1 normal prostate cells, 72 h
Description: as §1, §2

[4] = tested on: CWR22Rv1 cells; experiment: MTT growth inhibition assay; assay type: cell-based; details: Homo sapiens, 72 h
Description: as §1, §2

[5] = tested on: HUVEC cells; experiment: HUVEC cell tube formation assay; assay type: cell-based; details: 5 μM, 6 h
Description: HUVEC cells were seeded on mitrogel and treated with CTA095 (0 and 5 μM) for 6 h. Vascular tube formation was visualized using a microscope.
Figure 8 Inhibition of tube formation and cell migration by CTA095. Inhibition of vascular tube formation of HUVEC endothelial cells (A) and inhibition of migration (wound healing) of PC3 human prostate cancer cells (B) by CTA095. (A) HUVEC cells were seed on mitrogel and treated with CTA095 (0 and 5 μM) for 6 h. Vascular tube formation was visualized using microscope. (B) PC3 cells were grown in 6-well plate to 60% confluency. Then wounds were made and treated with CTA095 (0 and 5 μM). Cell migration (wound healing) was visualized under microscope at the indicated times.

[6] = tested on: STAT3 phosphorylation in PC3 cells; experiment: Western blot of STAT3 phosphorylation; assay type: cell-based, human; details: 24 h
Description: (§3) Western blotting was performed as described previously. Proteins were detected using the following antibodies: β-actin (Sigma-Aldrich, Saint Louis, MO), Etk (Santa Cruz Inc., Santa Cruz, CA), pEtk; Src, pSrc; Stat3, pStat3. For phospho-Etk, cells were pre-treated with 100 μM pervanadate for 15 min before harvest.
(§4) Figure 4 Inhibition of cell signaling in PC3 cells following treatment with CTA095. Cells were grown in 10 mm plate to 50% confluence and treated with CTA095. Cells were harvested after 24 h. pEtk, Etk, pSrc, Src, pStat3, Stat3, pAkt and Akt levels were measured using the corresponding antibodies by Western blot. One of three similar experiments depicted.

[7] = tested on: pEtk, pSrc, pSTAT3, Myc and BCL2 in PC3-AZD20 cells; experiment: Western blot of pEtk, pSrc, pStat3, Myc and BCL2; assay type: cell-based, human; details: PC3-AZD20, 10 μM
Description: PC3-AZD20 cells were seeded at 10^6 cells/well in 6 well plates overnight. The cells were treated with AZD0530 or CTA095 at 10 μM. Apoptosis was analyzed using Annexin-V FITC apoptosis detection kit. The mRNA levels of Myc and BCL2 were measured using real-time PCR. pEtk, Etk, pSrc, Src, pStat3, Stat3, Myc and BCL2 levels were measured using the corresponding antibodies through a Western blot.
Figure 12 CTA095 induces apoptosis in Src inhibitor resistant prostate cancer cells through Myc and BCL2 inhibition. PC3-AZD20 (PC3 cell resistant to 20 μM AZD0530) cells were seeded at 10^6 cells/well in 6 well plates overnight. The cells were treated with AZD0530 or CTA095 at 10 μM. Apoptosis was analyzed using Annexin-V FITC apoptosis detection kit (A). The mRNA levels of Myc and BCL2 were measured using real-time PCR (B). pEtk, Etk, pSrc, Src, pStat3, Stat3, Myc and BCL2 levels were measured using the corresponding antibodies through Western blot (C). Columns, mean; bars, standard deviation, n = 3.

[8] = tested on: Etk phosphorylation in PC3-Etk cells; experiment: Western blot of Etk phosphorylation in intact cells; assay type: cell-based, human; details: 5 μM and 10 μM, 24 h
Description: as §3, §4

[9] = tested on: PC3 cells; experiment: Flow cytometry: PI staining and Annexin V-FITC apoptosis; assay type: cell-based, human; details: PC3, 24 h
Description: PC3 cells were treated with 0.1% DMSO (control) and CTA095 at the indicated concentrations for 24 h. Cell cycle arrest was determined by the incorporation of propidium iodide (Sigma-Aldrich) into permeabilized cells. Cells undergoing apoptosis were identified using an Annexin V-FITC kit (Abcam), following the manufacturer's instructions. The cells were analyzed using a Coulter Epics XL flow cytometer (Beckman Coulter, Miami, FL).
Figure 7 Induction of apoptosis of PC3 cells following treatment with CTA095. PC3 cells were seeded at 10^6 cells/ml (2 ml) in a 6-well plate overnight and then treated with CTA095 at the indicated concentrations for 24 h. Cell cycle arrest was analyzed using PI staining (A). Apoptosis was analyzed using Annexin-V FITC apoptosis detection kit (B). Caspase 9 activation was measured using western blot (D). For caspase 3/7 activity, PC3 cells were seeded at 5000 cells/well in 96 well plate overnight and treated with CTA095 at 0–10 μM for 24 h. Caspase-3/7 activities were measured using the Apo-ONE Homogeneous Caspase-3/7 Assay kit (Promega, Madison, WI) according to the manufacturer's instruction. Columns, mean; bars, standard deviation, n = 3. […] TEXT PRINTED IN THE PICTURE: (A) CTA095: 4.3% (0 μM); 6.9% (5 μM); 44.0% (10 μM) DOUBTS OF THE COPYIST ABOUT THIS PICTURE: Panel A prints no substance label. […]

solubility in water [1]: highly insoluble in water
IC50 [2]: 3.8 µM
SMILES: O=c1[nH]c2cc3nc(-c4ccc5oc6ccccc6c5c4)n(CCCN4CCCCC4)c3cc2nc1-c1ccccc1 [CTA095, 2-(dibenzo[b,d]furan-2-yl)-7-phenyl-1-(3-(piperidin-1-yl)propyl)-1H-imidazo[4,5-g]quinoxalin-6(5H)-one]
IC50 [3]: 7.9 µM
IC50 [4]: 4.2 µM
tube formation of HUVEC cells [5]: disrupted
STAT3 phosphorylation [6]: also inhibited
pEtk, pSrc, pSTAT3, Myc and BCL2 protein levels [7]: all down regulated
Etk phosphorylation [8]: significantly inhibited
apoptosis (Annexin-V reactivity) [9]: dose-dependent increase of apoptosis
